Key:
[1] = mouse plasma pharmacokinetics after single oral administration; assay type: in vivo
Procedure: Initial in vivo studies aimed at understanding the pharmacokinetic and pharmacodynamic (PK/PD) relationship and optimizing the dosing regimen were conducted. HC-5404 was quantified from mouse plasma following a single oral administration (PO) at doses ranging from 3 to 100 mg/kg. […] Mouse plasma protein binding (PPB %) was determined to be 95.6%, which enabled us to calculate the free drug plasma exposure across time (FIG. 18).

ATF4 levels in HEK293 = assay: HEK293 cell-based ATF4 western blot; conditions: Homo sapiens; HEK293, tunicamycin 1 μM
Procedure: Cell based assays HEK293 cells were plated at 1×10^6 cells per well and treated with HC-5404 30 minutes prior to addition of tunicamycin (1 μM) to induce ER stress. Cells were harvested 4 hours following tunicamycin addition and lysed for western blotting in RIPA buffer supplemented with protease and phosphatase inhibitors. Total protein concentrations were determined by BCA and […] of protein were loaded on to SDS-PAGE gels, transferred to nitrocellulose and probed with a primary antibody against phosphorylated T-982 of human PERK or total ATF4 followed by incubation with an infrared labelled secondary antibody. Blots were imaged on a LiCor imager and normalized to total protein in the wells using Revert™ stain. Band intensities were quantified and normalized to DMSO treated samples. Normalized band intensities were plotted as percent inhibition against 10-point; 3-fold dilution series of HC-5404. IC50 values were calculated using 4-parameter logistical fitting in XLFit.
The cell-based activity of HC-5404 was evaluated using HEK293 treated with tunicamycin (Tm; 1 μM) to induce ER stress.

SMTCA75 = assay: RCC PDX single animal trial, SMTCA75; assay type: in vivo, mouse; conditions: HC-5404 30 mg/kg PO BID, n=1
Text: This example investigated the effect of HC-5404 in combination with VEGFR-TKIs in inhibiting tumor growth using 12 RCC PDX tumor models, following procedures analogous to those described above.
Single animal per group (n=1) trial of animals harboring diverse RCC PDX models were used in this study.

BLK = BLK (Homo sapiens, UniProt P51451); assay: KINOMEScan biochemical panel assay, BLK; assay type: binding; conditions: 1000 nM
Procedure: (§1) The selectivity of HC-5404 against the broader kinome was then evaluated using a KINOMEScan biochemical panel assay that measured binding against 468 unique kinases, including 403 wild-type human kinases and 59 mutant isoforms.

RIOK2 = RIOK2 (Homo sapiens, UniProt Q9BVS4); assay: KINOMEScan biochemical panel assay, RIOK2; assay type: binding; conditions: 1000 nM
Procedure: as §1

pPERK in mouse pancreas = assay: pPERK inhibition (PD) in mouse pancreas; assay type: in vivo
Procedure: The PK/PD relationship was evaluated in mouse pancreas, as the pancreas has elevated pPERK activity that makes it suitable for PD analysis. […] At these concentrations, pPERK inhibition was approximately 90% (FIG. 19).

[2] = system: pro-angiogenic cytokines in mouse plasma; assay: plasma pro-angiogenic cytokines, mice bearing 786-O tumors; assay type: in vivo
Procedure: Mouse plasma sampled following 7 days of treatment with HC-5404 (30 mpk, PO, BID) and cabozantinib (30 mpk, PO, QD). Multiple cytokines associated with angiogenesis were quantified by Illumina multiplex.
Plasma analysis from mice bearing 786-O tumors, treated with HC-5404 at 3, 10, or 30 mg/kg (PO; BID) as a single agent or in combination with cabozantinib (30 mg/kg; PO; QD). Multiple cytokines associated with angiogenesis were quantified by Illumina multiplex (FIG. 86, FIG. 87, FIG. 88, FIG. 89, FIG. 90).

468 unique kinases = assay: KINOMEScan biochemical panel assay; assay type: binding, human
Procedure: as §1

[3] = system: mouse bone marrow-derived MDSCs / T cells; assay: mouse T cell suppression assay with bone marrow-derived MDSCs; assay type: cell-based; conditions: LSLG + 500 nM (FIG. 11A, 11C)
Procedure: Mouse MDSC Preparation: Single cell suspensions from bone marrow were prepared from the tibia and femur bone of C57BL/6 mice. Cells were cultured in RPMI complete medium (RPMI medium supplemented with 10% FBS, 10 mM HEPES, 1 mM Sodium pyruvate, 50 uM 2-ME, 1 mM MEM NEAA, 1× penicillin-streptomycin and 2 mM L-glutamax) at 2.5×10^6 cells per 10 ml in a […] tissue culture dish for 4 days in a 37 0 °C, 5% CO2 humidified incubator. Cytokines GM-CSF (10 ng/ml) and IL-6 (10 ng/mL) were added to the cell culture on day 0. For low serum low glucose (LSLG) medium treatment, cultured cells were first harvested from the plate and washed twice with RPMI medium to rinse off residual serum and glucose, and then cultured in 5 ml of LSLG medium (glucose-free RPMI supplemented with 1% FBS, 1 g/L glucose, 1× penicillin-streptomycin and 2 mM L-glutamax) in a 15 ml conical tube for 6 hours with or without HC-5404 addition. Cells were harvested and used in the T cell suppression assay.
Mouse T cell suppression assay: Spleens were harvested from C57BL/6 mice. […] T cell proliferation was analyzed by flow cytometry. […] The labeled cells were analyzed on a BD Fortessa cytometer and data was analyzed by FlowJo. […] Data were analyzed using one-way ANOVA with multiple comparison corrected with Dunnett test. *P<0.05; **P<0.01; ***P<0.005, ****P<0.0001 (FIGS. 11A, 11B, and 11C).

Sequence of BLK (P51451 whole entry, canonical isoform): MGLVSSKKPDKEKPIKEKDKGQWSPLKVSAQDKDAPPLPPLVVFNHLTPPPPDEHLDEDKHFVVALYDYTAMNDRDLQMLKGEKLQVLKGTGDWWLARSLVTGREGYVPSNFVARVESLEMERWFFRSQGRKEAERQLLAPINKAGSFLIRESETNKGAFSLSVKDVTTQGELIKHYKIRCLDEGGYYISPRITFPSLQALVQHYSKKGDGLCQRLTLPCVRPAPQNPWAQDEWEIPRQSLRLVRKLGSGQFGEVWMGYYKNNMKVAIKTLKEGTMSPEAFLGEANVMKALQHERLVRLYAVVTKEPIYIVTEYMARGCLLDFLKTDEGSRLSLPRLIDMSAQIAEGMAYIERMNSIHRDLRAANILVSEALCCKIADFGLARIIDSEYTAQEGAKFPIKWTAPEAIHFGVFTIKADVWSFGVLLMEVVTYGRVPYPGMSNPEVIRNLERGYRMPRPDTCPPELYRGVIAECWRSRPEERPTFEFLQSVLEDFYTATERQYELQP
Sequence of RIOK2 (Q9BVS4 whole entry): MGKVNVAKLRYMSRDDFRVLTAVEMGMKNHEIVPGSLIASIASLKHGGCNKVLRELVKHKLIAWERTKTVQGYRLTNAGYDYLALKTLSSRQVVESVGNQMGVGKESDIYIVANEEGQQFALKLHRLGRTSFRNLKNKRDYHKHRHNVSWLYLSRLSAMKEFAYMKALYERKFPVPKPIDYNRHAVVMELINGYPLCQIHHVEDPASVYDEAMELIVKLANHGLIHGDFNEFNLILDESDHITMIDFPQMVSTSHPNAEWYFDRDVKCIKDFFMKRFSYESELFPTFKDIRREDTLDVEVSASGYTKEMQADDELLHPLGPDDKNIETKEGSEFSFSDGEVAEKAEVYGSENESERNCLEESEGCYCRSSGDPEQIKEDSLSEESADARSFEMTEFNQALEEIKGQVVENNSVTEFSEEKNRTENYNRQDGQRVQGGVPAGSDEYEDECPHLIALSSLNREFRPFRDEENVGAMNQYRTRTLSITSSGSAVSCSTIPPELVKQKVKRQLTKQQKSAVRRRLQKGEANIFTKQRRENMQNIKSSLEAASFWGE

Cc1cc(NC(=O)[C@H](O)c2cc(F)cc(F)c2)ccc1-c1cnc(N)c(C(=O)NC(C)C)c1 [HC-5404, (R)-2-amino-5-(4-(2-(3,5-difluorophenyl)-2-hydroxyacetamido)-2-methylphenyl)-N-isopropylnicotinamide]
free drug (unbound) plasma exposure at Cmax / 1 h ([1]; PO, 30 mg/kg): 355 nM
concentration at 1 h ([1]; plasma, PO, 30 mg/kg): 3670 ng/mL
concentration at 12 h ([1]; plasma, single PO, 100 mg/kg, read-out: plasma exposure up to 12 h after dosing): > 3200 ng/mL
Tmax ([1]; plasma, single PO, 3 to 100 mg/kg, read-out: time of Cmax): < 1 h
unbound plasma concentration at Cmax ([1]; single PO, 100 mg/kg): 1605 nM
unbound plasma exposure up to 12 h after dosing ([1]; single PO, 100 mg/kg): > 311 nM
average half-life ([1]; single PO, 3 to 100 mg/kg): 2.22 h
dose proportionality of exposure ([1]; single PO, up to 100 mg/kg): Dose-proportional increases in exposure
IC50 (ATF4 levels in HEK293): 115 nM
antitumor efficacy as monotherapy (SMTCA75): exhibited antitumor efficacy
inhibition of BLK (BLK): inhibited
inhibition of RIOK2 (RIOK2): inhibited
time until basal pPERK levels restored in pancreas (pPERK in mouse pancreas; 30 mg/kg PO, after dosing): ≤ 12 h
pPERK activity remaining in pancreas (pPERK in mouse pancreas; 100 mg/kg PO, first 12 h): < 20%
inhibition at 30 mg/kg (pPERK in mouse pancreas; Mus musculus, 30 mg/kg PO, 1 h): ~90%
inhibition of p-PERK in pancreas tissue (pPERK in mouse pancreas; PO): time-dependent and dose-dependent inhibition of p-PERK
VEGF-A in plasma ([2]; 3, 10, 30 mg/kg PO BID (FIG. 86)): decreased in plasma by HC-5404 as a single agent in a dose-dependent fashion
LYVE-1 in plasma ([2]; 3, 10, 30 mg/kg PO BID, alone or with cabozantinib (FIG. 89)): decreased by HC-5404 in a dose-dependent manner
Syndecan in plasma ([2]; 3, 10, 30 mg/kg PO BID, alone or with cabozantinib (FIG. 90)): decreased by HC-5404 as monotherapy
interactions in kinome panel (468 unique kinases; 100 nM, PERK not in panel): no interactions observed
number of kinases inhibited >65% (468 unique kinases; 10,000 nM): 9 kinases
inhibition of T-cells by MDSCs [3]: reduced inhibition of T-cells

— patent US20260373132A1, “PERK INHIBITORHC-5404 IN COMBINATION WITH ANTI-PD-1 ANTIBODY AND/OR AN ANTIANGIOGENETIC AGENT FOR USE IN THE TREATMENT OF CANCER” (HIBERCELL, INC., priority 2022, published 2026)
